The text below walks through data of patent publication US20200069664A1, “METHODS FOR TREATING INFECTION” (Salix Pharmaceuticals, Ltd, priority 2010, published 2020).

SMILES strings stand for the structures. Values after ≈ are worked out from the molar mass of the structure shown. Like-named read-outs stand apart in the source and are kept apart here.

The test system of one experiment is EAEC strain O42. It counts as cell-based, E. coli.
For a further experiment, the system named is EAEC. Kind of experiment: Effect of dialyzed supernatants of treated HEp-2 cells on EAEC adherence. It counts as cell-based, E. coli. To be noted: HEp-2 treated 24 h with 64 mg/ml (so in the source); chambered slides with or without HEp-2 cells, 3 h. As for the experimental part: Supernatant dialysis. HEp-2 cells were cultured in T-175 flasks as described above. […] After 24 h, the medium was collected, loaded into regenerated cellulose dialysis tubing (cutoff, 6 to 8 kDa; Spectra/Por, Rancho Domiguez, Calif.), and dialyzed against 4 liters of PBS changed four times. Each dialysis step lasted at least 6 h and was carried out at 4° C. Dialyzed supernatants were either used immediately in adherence assays or stored at −20° C. until use.
The effect of supernatants on EAEC adherence was determined by mixing EAEC with the dialyzed media from the different antibiotic (or control) treatment groups and adding the bacteria to HEp-2 cells cultured in chambered slides or to chambered slides with no HEp-2 cells. Adherence was visualized microscopically as described above.

Another experiment has as its system HEp-2 cells. The experiment can be described thus: Cytokine array of supernatants of treated HEp-2 cells. As to conditions: 64 μg/ml, 24 h; Panomics array of 36 cytokines.
A further experiment has as its system C difficile isolates. The experiment can be described thus: In vitro susceptibility of C difficile isolates (agar dilution for rifaximin, Etest for rifampin).

`CO[C@H]1/C=C/O[C@@]2(C)Oc3c(C)c(O)c4c(O)c(c(/C=N/N5CCN(C)CC5)c(O)c4c3C2=O)NC(=O)/C(C)=C\C=C\[C@H](C)[C@H](O)[C@@H](C)[C@@H](O)[C@@H](C)[C@H](OC(C)=O)[C@@H]1C` [Rifampin, rifampin]: in the experiment with EAEC strain O42, the “EAEC O42 adherence to pretreated HEp-2 cells (microscopy, stacked-brick pattern)” value is listed as “adhered in the traditional stacked-brick formation”. In the experiment on EAEC, the “Adherence of EAEC mixed with dialyzed supernatants from treated HEp-2 cells” value is on record as “adhered to chambers independently of the presence of HEp-2 cells”. In the experiment with HEp-2 cells, the “Cytokines detected in supernatants of treated HEp-2 cells” value is on record as “same profile, except that MIPS was not detected”. In the experiment on C difficile isolates, this compound showed an MIC50 below 0.002 µg/mL and an MIC90 of 4 µg/mL (≈ 4.86 µM). Moreover, the MIC50 against C difficile isolates (359 C difficile isolates) is below 0.002 µg/mL. In addition, the “Resistant isolates, percent of 359” value in the experiment on C difficile isolates (resistance = MIC≥32 μg/mL, for rifaximin b194 says 'rifaximin alone') worked out at 8%.

As a reminder, the MIC50 is an inhibitory concentration at the 50% level, which refers to growth in some studies and to a panel of isolates in others. As a reminder, the MIC90 is an inhibitory concentration at the 90% level, which refers to growth in some studies and to a panel of isolates in others. Low readings indicate greater potency, high ones weaker potency.
